The results in this text go back to patent US4923990A, “Pyrindamycins A and B and duocarmycin A antibiotics derived from certain streptomyces culture” (priority 1986, dated 1990).

One series has as its system Sarcoma 180 solid tumor. Type of series: in vivo, male ddY-strain mice. The note with it: for Average Tumor Volume / T/C (average tumor volume treated/control): day 10. The procedure:
(1) Therapeutic effect against Sarcoma 180 solid tumor
Six male ddY-strain mice each having a weight of about 20 g were used for each group as test animals, and 5×10^6 cells of Sarcoma 180 ascites tumor were implanted subcutaneously into the animals at the axilla. 0.2 ml of phosphate buffered saline (hereinafter referred to as PBS) containing DC-88A or DC-89Al at the concentrations shown in Tables 3 and 4 was administered once intraperitoneally 24 hours after implantation.
The composition of PBS was 0.8 g/dl NaCl, 0.02 g/dl KCl, […] Na2 HPO4 and 0.02 g/dl KH2 PO4 (pH 7.2).
The average tumor volume (mm^3) and T/C [T: average tumor volume of the groups treated with the test compound (mm^3), C: that of control group which received an intraperitoneal administration of 0.2 ml of PBS solution (mm^3)] were determined ten days after implantation.
For comparison, 0.2 ml of PBS containing mitomycin C was intraperitoneally administered to a group of animals 24 hours after tumor implantation.

The next series can be described thus: Acute toxicity. The conditions noted are these: mouse, in vivo, ip; intraperitoneal administration to mice.
A further series can be described thus: Solubility. The class given is physicochemical.
The test system of series [1] is Salmonella typhi ATCC 9992. The series can be described thus: Minimum inhibitory concentration, agar dilution method. The class given is cell-based. The conditions noted are these: Salmonella enterica, pH 7. The procedure: (§1) (A) Minimum inhibitory concentration against various microorganisms (MIC μg/ml)
(§2) The antibacterial activity was measured by the agar dilution method, using a medium (pH 7) prepared by dissolving 3 g of Bacto-Tryptone (Manufacturedby Difco Co., Ltd.), 3 g of meat extract, 1 g of yeast extract, 1 g of glucose and 16 g of agar in 1 l of water.

The test system of series [2] is Shigella sonnei ATCC 9290. Described as above. Type of series: cell-based. The note with it: ATCC9290, pH 7. The procedure:
as §1, §2

Series [3] has as its system Staphylococcus aureus ATCC 6538P. Described as above. Type of series: cell-based. The note with it: ATCC6538P, pH 7. The procedure: as §1, §2
Another series has as its system Escherichia coli ATCC 26. Described as above. The class given is cell-based. The note with it: ATCC26, pH 7. The procedure:
as §1, §2

Series [4] relates to Bacillus subtilis No. 10707. The description is as above. The conditions noted are these: pH 7. Type of series: cell-based. The procedure:
as §1, §2

Series [5] deals with Klebsiella pneumoniae ATCC 10031. Described as above. The note with it: ATCC10031, pH 7. The class given is cell-based. The procedure:
as §1, §2

Series [6] has as its system lymphocytic leukemia P388 tumor. The series can be described thus: Therapeutic effect on lymphocytic leukemia P388 tumor. The class given is in vivo, male CDF1 mice. The procedure: (2) Therapeutic effect on lymphocytic leukemia P388 tumor
Five male CDF1 mice each having a weight of about 22 g were used for each group as test animals, and 1×10^6 cells of lymphocytic leukemia P388 tumor were implanted intraperitoneally into the test animals. […] The mean survival days after implantation and increased life span (T/C) (T: mean survival days for the treated groups, C: mean survival days for the control group) were calculated.
For comparison, 0.2 ml of PBS solution containing mitomycin C was intraperitoneally administered to a group of animals 24 hours after tumor implantation.

[7] abbreviates: methanol, ethanol, acetone, chloroform, ethyl acetate, DMSO.

≈ marks a conversion by molar mass, not a printed value. Like-named read-outs stand apart in the source and are kept apart here.

In the case of `COC(=O)C1(C)NC2=C(C1=O)C13CC1CN(C(=O)c1cc4cc(OC)c(OC)c(OC)c4[nH]1)C3=CC2=O` (stereo not drawn) [DC-88A, duocarmycin A], the “Average Tumor Volume” value was 1104.8 mm^3 in the series on Sarcoma 180 solid tumor (0.195 mg/kg ip once 24 h after implantation, control 2124.7); 849.9 mm^3 in the series on Sarcoma 180 solid tumor (0.39 mg/kg ip once 24 h after implantation, control 2124.7); 467.4 mm^3 in the series on Sarcoma 180 solid tumor (0.78 mg/kg ip once 24 h after implantation, control 2124.7). In addition, the figures for the “T/C (average tumor volume treated/control)” value in the series with Sarcoma 180 solid tumor (0.195 mg/kg ip once), with Sarcoma 180 solid tumor (0.39 mg/kg ip once) and in the series on Sarcoma 180 solid tumor (0.78 mg/kg ip once) were 0.52, 0.40 and 0.22, respectively. In the series “Acute toxicity”, the LD50 was roughly 0.94 mg/kg. For the same compound, the Solubility result is “Soluble” in “Solubility” (setting [7]); “sparingly soluble” in the series “Solubility” (water and hexane (n-hexane)). The MIC was 10 mg/L (≈ 19.7 µM) in [1]; 40 mg/L (≈ 78.8 µM) in series [2]; 0.05 mg/L (≈ 0.0985 µM) in series [3]; 20 mg/L (≈ 39.4 µM) against Escherichia coli ATCC 26; 0.05 mg/L (≈ 0.0985 µM) in series [4]; 0.5 mg/L (≈ 0.985 µM) in series [5]. Besides, the “Increased Life Span (T/C)” value in series [6] (0.024 mg/kg, continuous administration for five days) is given as 1.43; in series [6] (0.098 mg/kg ip once), 1.08; in [6] (0.195 mg/kg ip once), 1.15; in series [6] (0.39 mg/kg ip once) it was 1.14; in series [6] (0.78 mg/kg ip once), 1.12. The “Mean Survival Days” value in series [6] (0.024 mg/kg, continuous administration for five days, control 11.0) worked out at 15.7 days; in series [6] (0.098 mg/kg ip once 24 h after implantation, control 11.0), 11.9 days; in [6] (0.195 mg/kg ip once 24 h after implantation, control 11.0) it was 12.7 days; in series [6] (0.39 mg/kg ip once 24 h after implantation, control 11.0), 12.5 days; in series [6] (0.78 mg/kg ip once 24 h after implantation, control 11.0), 12.3 days.

Regarding `COC(=O)C1(C)Nc2c(O)cc3c(c2C1=O)CC(Cl)CN3C(=O)c1cc2cc(OC)c(OC)c(OC)c2[nH]1` (stereo not drawn) [DC-89Al, duocarmycin Cl], the “Average Tumor Volume” value in the series with Sarcoma 180 solid tumor (0.78125 mg/kg ip once 24 h after implantation, control 1828.0) is 1409.5 mm^3. Also, the “T/C (average tumor volume treated/control)” value in the series with Sarcoma 180 solid tumor (0.78125 mg/kg ip once) turned out to be 0.77. In addition, the “Toxic (printed in column Average Tumor Volume)” value in the series on Sarcoma 180 solid tumor (1.5625 mg/kg ip once 24 h after implantation) is given as “Toxic”. Further, in the series “Acute toxicity”, the LD50 was roughly 1.17 mg/kg. The Solubility result in the series “Solubility” (setting [7]) is on record as “readily soluble”; in “Solubility” (water and hexane (n-hexane)), “sparingly soluble”. Further, the minimum inhibitory concentration (MIC) in [1] is greater than 100 mg/L; in [3], greater than 8.4 mg/L; against Escherichia coli ATCC 26, greater than 100 mg/L; in series [4] it was 0.07 mg/L (≈ 0.129 µM); in [5], 4.2 mg/L (≈ 7.72 µM). Also, the “Increased Life Span (T/C)” value turned out to be 1.28 in series [6] (0.125 mg/kg ip once), 1.38 in series [6] (0.25 mg/kg ip once), 1.40 in series [6] (0.5 mg/kg ip once) and 1.23 in [6] (1 mg/kg ip once). Also, the “Mean Survival Days” value in series [6] (0.125 mg/kg ip once 24 h after implantation, control 10.7) is 13.8 days; in series [6] (0.25 mg/kg ip once 24 h after implantation, control 10.7), 14.8 days; in [6] (0.5 mg/kg ip once 24 h after implantation, control 10.7) it was 15.0 days; in series [6] (1 mg/kg ip once 24 h after implantation, control 10.7), 13.2 days.

On to `CO[C@@]12[C@H](COC(N)=O)C3=C(C(=O)C(C)=C(N)C3=O)N1C[C@@H]1N[C@@H]12` [Mitomycin C, mitomycin C, reference compound], for which the “Average Tumor Volume” value with Sarcoma 180 solid tumor (6 mg/kg ip 24 h after implantation, control 1828.0) came to 499.6 mm^3. Also, in the series with Sarcoma 180 solid tumor (6 mg/kg ip), the “T/C (average tumor volume treated/control)” value was 0.27. The “Increased Life Span (T/C)” value in [6] (6.0 mg/kg ip) is given as 1.60. The “Mean Survival Days” value in series [6] (6.0 mg/kg ip 24 h after implantation, control 10.7) turned out to be 17.2 days.
